According to patent publication US20260286370A1, “METHODS FOR RAPID AGROBACTERIUM-MEDIATED SUNFLOWER STABLE TRANSFORMATION” (SYNGENTA CROP PROTECTION AG, priority 2023, published 2026):

Experiments:
Type in all cases: in vivo, Helianthus annuus
sunflower explants [1] = assay: Transformation frequency by selection system (aadA or ALS selectable marker); conditions: substance used as selection agent (aadA marker for spectinomycin, ALS marker for bensulfuron-methyl)
Description: As the Examples indicate, multiple transgenic-shoot structures were induced from infected explant tissues. Then the explants were shortly selected on selection media with selection agent (7-14 days, Spectinomycin as selection agent) and transplanted into soil to allow shoot and root development under controlled conditions (in growth chamber). From multiple experiments, transgenic events were successfully generated with aadA or ALS as selectable markers (spectinomycin and bensulfuron-methyl as selection agents respectively). The transformation frequency (TF) is 8.2% for spectinomycin selection, and 3.6% for bensulfuron-methyl selection system.

sunflower explants [2] = assay: Resistant frequencies with different concentration of spectinomycin in selection medium (Protocol V2); conditions: F75400
Procedure: Transformed sunflower explants was transferred onto regeneration media by inserting cotyledon with meristem region into solid medium with a selection agent. Hypocotyl was left untouching the medium. The hypocotyl was covered with sterilized matrix and put the jar in 22° C., 16/8 h light/dark. The regeneration step lasted for 7-14 days. Specifically, after co-culture, the mature seeds were placed on regeneration medium as follows: cotyledon/meristem region was inserted into solid medium with a selection agent (100 mg/L spectinomycin), the hypocotyl was left upside (the whole seeds were upside down); the container was covered with sterilized matrix (soil mixture) and placed in growth chamber for inducing shooting and rooting simultaneously under short time selection (7-14 days).
Selection medium with spectinomycin 100-800 mg/L was tested. The resistant plantlets are generated with normal shoots and roots, further confirmed by visualizing GFP. […] (Experiment alias: SF-23-SP-24545; variety: F75400).

[3] = system: sunflower explants from 1-day imbibed seeds; assay: Transformation efficiency with different concentration of TDZ in infection medium (Protocol V1); conditions: for # of TaqMan Positive Events / TF: variety F75400, vector 24545
Procedure: Agrobacterium from storage at −80° C. were streaked to YP (Yeast Peptone) medium with 100 mg/L spectinomycin and 50 mg/L kanamycin at least 3 days before infection. They were re-streaked to a new YP medium plate with some concentrations of spectinomycin and kanamycin 1 day before infection. The Agrobacterium were then collected and re-suspended in infection liquid medium (containing MS basal salts and B5 vitamins, sucrose 20 g/L, glucose 10 g/L, MES, 4 g/L, zeatin riboside 2 mg/L, 3-10 mg/L TDZ, 80 mg/L acetosyringone (AS), 150 mg/L dithiothreitol (DTT), pH=5.5). The concentration of the Agrobacterium was adjusted until OD660=0.6.
One cotyledon of the split germinated seeds was removed with a scalpel to expose the shoot apex with its two primary leaves. The two primary leaves were completely removed to expose the apical meristem and the apical region was gently wounded with the sharp end of a scalpel. The resultant explants were then placed in an Agrobacterium suspension and add 1/1000 10% F68; the suspension was then placed under vacuum at 800-900-mbar for 5-30 min followed by sonication at 45 kHz for 30-60s with gentle shaking. The explants were inoculated for 2-3 hours with the Agrobacterium with 50-80 rpm shaking.
After inoculation in (3), the Agrobacterium suspension was removed, and the explants were then placed onto a piece of filter paper in a petri dish which prewetted by 0.5 ml co-cultivation media (MS basal salts and vitamins, MS iron, zeatin 1 mg/L, sucrose 10 g/L, glucose 5 g/L, MES 2 g/L, acetosyringone 20 mg/L, silver nitrate 0.5 mg/L) with the adaxial side up. One side of the filter paper was covered, and the petri dish was sealed with parafilm. Approximately 10~20 explants were placed per petri dish. The explant and Agrobacterium were co-cultured for 4 days in low-illumination condition: PAR (photosynthetically active radiation) 40 μmol m−2 s−1 with 16/8 light/dark condition. The plate containing explants was covered with a steel tray in an incubator (PERVICAL® Scientific Chambers, Perry, IA). These conditions were chosen to increase infection and prevent embryo deterioration. The explants were then co-cultured at 22° C. in the dark for 3-6 days in growth chamber.
After co-culture, the explants were transferred onto SFR1 medium for shoot regeneration (Gamborg B5 basal salts and B5 vitamins, MS Iron 200×, sucrose 20 g/L, MES 1 g/L, timentin 150 mg/L, carbenicillin 150 mg/L, agar 7.5 g/L, lipoic acid-50 mM, BAP 1 mg/L). The SFR1 medium also contained a selection agent (i.e., spectinomycin 50-150 mg/L). The explants were allowed to culture on SFR1 media in the dark at 25° C. for 3-6 days, and then grown under light (16/8 light/dark) at 25° C. for 9-14 days. FIGS. 6A-D show formation of the primary shoots with GFP expression.
Different concentrations of TDZ in the infection medium were tested to assess if TDZ concentration impacts transformation (Experiment alias: SF-52-SP-24545, SF-66-SP-24545, SF-81-SP-24545; variety: F75400). The process of transformation with explants from 1-day imbibed seeds was as described above. TDZ was added in the infection medium during the infection process for 2-4 hours. A TDZ concentration of 3-10 mg/L was used.

sunflower explants [4] = assay: Transformation efficiency with different cytokinin in germination medium (Protocol V2); conditions: variety F75400; for No. resistant shoot: hormone in germination medium: TDZ 4 mg/L (68 explants), BAP 5 mg/L (71 explants); for # of Resistant plants with GFP / Rate of resistant plants with GFP (%) / Resistant shoot rate: hormone in germination medium: TDZ 4 mg/L, BAP 5 mg/L
Description: Adding different cytokinin into germination medium can improve shoot induction rate and TF. The resistant plantlets were generated with normal shoots and roots, which was further confirmed by visualizing green fluorescent protein expression (GFP). (Experiment alias: SF-52-SP-24545, SF-66-SP-24545, SF-81-SP-24545; variety: F75400).

[5] = system: sunflower cotyledon explants; assay: Shoot induction rate of cotyledon explants with different plant hormone (conventional process); conditions: conventional in vitro process
Procedure: The most efficient regeneration and transformation system reported using cotyledon as explants was evaluated.

[6] = spectinomycin 100 mg/L in selection medium, SF23A, 89 explants
[7] = spectinomycin 200 mg/L in selection medium, SF23B, 67 explants
[8] = spectinomycin 300 mg/L in selection medium, SF23C, 61 explants
[9] = spectinomycin 500 mg/L in selection medium, SF23D, 68 explants
[10] = spectinomycin 800 mg/L in selection medium, SF23E, 70 explants
[11] = TDZ 3 mg/L in infection medium, 65 explants
[12] = TDZ 4 mg/L in infection medium, 49 explants
[13] = TDZ 8 mg/L in infection medium, 42 explants
[14] = TDZ 10 mg/L in infection medium, 37 explants

CN[C@@H]1[C@H](O)[C@H](NC)[C@H]2O[C@@]3(O)C(=O)C[C@@H](C)O[C@H]3O[C@@H]2[C@H]1O [Spectinomycin, spectinomycin]
transformation frequency (TF) (sunflower explants [1]): 8.2% | Generation of resistant shoots (sunflower explants [2]; all spectinomycin concentrations from 100 mg/L to 800 mg/L): generated resistant shoots | # of Resistant plants with GFP (sunflower explants [2]; [6]): 10 | Rate of resistant plants with GFP (%) (sunflower explants [2]; [6]): 11% | Rooting rate (%) (sunflower explants [2]; [6]): 66% | Shooting Rate (%) (sunflower explants [2]; [6]): 40% | # of Resistant plants with GFP (sunflower explants [2]; [7]): 6 | Rate of resistant plants with GFP (%) (sunflower explants [2]; [7]): 9% | Rooting rate (%) (sunflower explants [2]; [7]): 36% | Shooting Rate (%) (sunflower explants [2]; [7]): 18% | # of Resistant plants with GFP (sunflower explants [2]; [8]): 2 | Rate of resistant plants with GFP (%) (sunflower explants [2]; [8]): 3% | Rooting rate (%) (sunflower explants [2]; [8]): 30% | Shooting Rate (%) (sunflower explants [2]; [8]): 16% | # of Resistant plants with GFP (sunflower explants [2]; [9]): 2 | Rate of resistant plants with GFP (%) (sunflower explants [2]; [9]): 3% | Rooting rate (%) (sunflower explants [2]; [9]): 18% | Shooting Rate (%) (sunflower explants [2]; [9]): 10% | # of Resistant plants with GFP (sunflower explants [2]; [10]): 1 | Rate of resistant plants with GFP (%) (sunflower explants [2]; [10]): 1% | Rooting rate (%) (sunflower explants [2]; [10]): 9% | Shooting Rate (%) (sunflower explants [2]; [10]): 9%

COC(=O)c1ccccc1CS(=O)(=O)NC(=O)Nc1nc(OC)cc(OC)n1 [bensulfuron-methyl]
transformation frequency (TF) (sunflower explants [1]): 3.6%

O=C(Nc1ccccc1)Nc1cnns1 [TDZ, 1-phenyl-3-(1,2,3-thiadiazol-5-yl)urea]
# of TaqMan Positive Events [3, 11]: 1 | TF [3, 11]: 1.5% | # of TaqMan Positive Events [3, 12]: 4 | TF [3, 12]: 8.2% | # of TaqMan Positive Events [3, 13]: 3 | TF [3, 13]: 7.1% | # of TaqMan Positive Events [3, 14]: 1 | TF [3, 14]: 2.7% | Effect on shoot induction rate and transformation efficiency ([3]; TDZ 3-10 mg/L in infection medium for 2-4 hours): significantly improve shoot induction rate and transformation efficiency | No. resistant shoot (sunflower explants [4]): 7 | # of Resistant plants with GFP (sunflower explants [4]): 5 | Rate of resistant plants with GFP (%) (sunflower explants [4]): 7% | Resistant shoot rate (sunflower explants [4]): 10%

c1ccc(CNc2ncnc3nc[nH]c23)cc1 [BAP, 6-benzylaminopurine]
Shoot induction rate (%) [5]: 2% | No. resistant shoot (sunflower explants [4]): 6 | # of Resistant plants with GFP (sunflower explants [4]): 5 | Rate of resistant plants with GFP (%) (sunflower explants [4]): 7% | Resistant shoot rate (sunflower explants [4]): 8%
